Read-outs that look alike come from different tables or passages of the source.

Data set [1] has as its system CYP3A. Particulars: cited from earlier work.
In another data set the test system is P450 2B1. Particulars: cited from earlier work.
For another data set, the system named is P450 2B4. The conditions noted are these: cited from earlier work.
For data set [2], the system named is CYP3A. The data set is described as follows: CYP3A activity: 6β-hydroxytestosterone formation from testosterone in rat liver microsomes. The protocol:
(§1) Measurement of CYP3A Activity. CYP3A activity was assessed by measuring the formation rate of 6β-hydroxytestosterone from testosterone in dexamethasone-induced liver microsomes from male Sprague-Dawley rats (Human Biologics Inc., Phoenix, Az.) using incubation conditions identical to those described previously. Edwards, D. J. et al., Life Sci. 59:1025-1030 (1996). […] Siess, M.-H. et al., Toxicol. Appl. Pharmacol. 130:73-78 (1995). In addition, 6β-hydroxytestosterone formation was also measured in human lymphoblast microsomes containing CYP3A4 expressed from transfected human CYP3A4 cDNA (Gentest Corporation, Woburn, Mass.).
(§2) HPLC Procedures and instrumentation. […] Methylene chloride (4 ml) was added and samples were vortex mixed for 2 minutes. After centrifugation, the organic phase was evaporated, the residue re-constituted in 200 μl of mobile phase (55% methanol in water) and injected (100 μl) onto the column (Partisil 5 ODS-3 25 cm C18 column, Whatman Inc., Clifton, N.J.). A mobile phase flow rate of 1.2 ml/minute was used with detection of analytes at 254 nm (Waters 490E multiwavelength UV detector, Waters Corp., Milford, Mass.).
Metabolic Experiments. Grapefruit juice (1 ml) was extracted into methylene chloride and, following evaporation of the organic phase, the residue was reconstituted in mobile phase and chromatographed by HPLC. Fractions of the HPLC eluent were collected at 3-4 minute intervals following injection, evaporated and the effect of the residue on 6β-hydroxytestosterone formation examined. […] Edwards, D. J. et al., Life Sci. 59:1025-1030 (1996). The effect of these solutions on 6β-hydroxytestosterone formation was compared using analysis of variance (SYSTAT for Windows™, Version 5.0) with the Tukey test for post-hoc analysis (p<0.05 for significance).

Data set [3] has as its system CYP3A. Particulars: co-administration; cited from earlier work.
For a further data set, the target named is human CYP3A4 (Homo sapiens, UniProt P08684). The data set is described as follows: 6β-hydroxytestosterone formation in human lymphoblast microsomes containing CYP3A4 expressed from transfected human CYP3A4 cDNA. The protocol: as §1, §2
human CYP3A4, sequence (P08684 whole entry): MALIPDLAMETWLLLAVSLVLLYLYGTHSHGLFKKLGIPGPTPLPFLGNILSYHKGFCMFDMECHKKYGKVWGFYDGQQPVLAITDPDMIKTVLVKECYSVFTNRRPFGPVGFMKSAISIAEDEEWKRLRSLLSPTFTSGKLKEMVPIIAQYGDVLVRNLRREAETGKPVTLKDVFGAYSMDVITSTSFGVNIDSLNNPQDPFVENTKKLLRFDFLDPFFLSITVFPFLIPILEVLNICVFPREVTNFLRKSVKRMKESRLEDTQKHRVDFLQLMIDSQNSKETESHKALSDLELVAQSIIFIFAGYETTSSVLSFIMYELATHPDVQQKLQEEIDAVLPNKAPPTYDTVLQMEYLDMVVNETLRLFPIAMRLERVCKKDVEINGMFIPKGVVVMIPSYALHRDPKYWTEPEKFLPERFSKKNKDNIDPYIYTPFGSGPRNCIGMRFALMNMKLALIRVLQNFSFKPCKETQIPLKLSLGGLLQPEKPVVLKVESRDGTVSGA
Metabolic Experiments. Grapefruit juice (1 ml) was extracted into methylene chloride and, following evaporation of the organic phase, the residue was reconstituted in mobile phase and chromatographed by HPLC. […]

Another data set relates to CYP3A4 (3A4). The data set can be described thus: Inhibition of CYP3A4 in a purified enzyme preparation. Format: biochemical.
A short description of data set [4]: Solubility in ethanol versus water. Particulars: ethanol vs water. Type of data set: physicochemical.
In data set [5] the target is T1, P450 3A4 (Homo sapiens, UniProt P08684). The conditions noted are these: for inhibition: e. coli membranes.
Target sequence in this assay (P08684 whole entry): as above
Target sequence in this assay (P16435 whole entry partner): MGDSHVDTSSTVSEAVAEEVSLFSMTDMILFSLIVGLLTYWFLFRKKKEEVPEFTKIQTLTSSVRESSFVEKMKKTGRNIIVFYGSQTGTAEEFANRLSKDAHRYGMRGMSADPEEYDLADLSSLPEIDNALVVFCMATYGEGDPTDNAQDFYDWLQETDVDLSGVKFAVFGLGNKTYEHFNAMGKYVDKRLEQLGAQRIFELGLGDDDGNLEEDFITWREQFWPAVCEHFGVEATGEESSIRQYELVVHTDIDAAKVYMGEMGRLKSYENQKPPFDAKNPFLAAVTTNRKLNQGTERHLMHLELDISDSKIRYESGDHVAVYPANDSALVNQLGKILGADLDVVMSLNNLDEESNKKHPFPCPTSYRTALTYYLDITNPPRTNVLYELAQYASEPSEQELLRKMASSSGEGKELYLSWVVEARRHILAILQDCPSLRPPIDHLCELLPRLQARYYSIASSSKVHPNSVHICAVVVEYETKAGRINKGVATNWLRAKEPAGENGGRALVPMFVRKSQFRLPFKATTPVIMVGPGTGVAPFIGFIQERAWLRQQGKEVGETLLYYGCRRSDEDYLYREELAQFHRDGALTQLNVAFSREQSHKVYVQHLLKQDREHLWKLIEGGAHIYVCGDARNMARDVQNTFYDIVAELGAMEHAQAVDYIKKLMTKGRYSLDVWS
The target of data set [6] is T1, P450 3A4. The data set is described as follows: Inactivation of P450 3A4 in human liver microsomes (testosterone 6β-hydroxylation, P450 content). Type of data set: biochemical. Also on record: The human liver microsomes was prepared by differential centrifugation; from tissue; host or cells: human liver (microsomes). The conditions noted are these: for P450 Content / Testosterone 6-β hydroxylation: 400 μM DHB, 15 min, 37° C., pH 7.5. On the procedure:
Inactivation of P450 3A4 in human liver microsomes and E. coli membranes. […] At end of the incubation, 100 μl of the incubation mixture was taken for determination of testosterone 6β-hydroxylation activity. The other aliquot was used for P450 determination by the method of Omura and Sato. Ducharme, M. P. et al., Clin. Pharmacol. Ther. 57:485-491 (1995). The human liver microsomes was prepared by differential centrifugation.
Determination of testosterone 6β-hydroxylation. The human liver microsomes or the P450 3A4 and reductase containing E. coli membrane fractions ([…] of P450) were incubated with 200 μM testosterone in 1 ml of 50 mM Hepes buffer (pH 7.5). The reactions were initiated by the addition of 1 mM NADPH and terminated by 1 ml of ethyl acetate in ice. The 6β-hydoxytestosterone product was determined by HPLC on a C18 column (Microsorb-MV, 5 μm, 4.6×15 cm) eluted with a mobile phase of 65% of methanol at flow rate of 1 ml/min and the eluate was monitored by UV detection at 254 nm.
Target sequence in this assay (P08684 whole entry): as the sequence (P08684 whole entry) above
Background: Liver microsomes are vesicles of endoplasmic reticulum, rich in cytochrome P450 enzymes.

Another data set deals with oxidative metabolism. The conditions noted are these: in vitro; cited from earlier work.
The subject of the next data set is CYP3A4. Particulars: human, in vivo; cited from earlier work.
The test system of data set [7] is P450. Particulars: oral erythromycin; oral and IV midazolam; cited from earlier work.
The test system of data set [8] is cytochrome P450. The conditions noted are these: cited from earlier work.
Another data set has as its system P450 1A1. The conditions noted are these: cited from earlier work.
The subject of the next data set is P450 1A2. The conditions noted are these: cited from earlier work.
Data set [9] relates to P450. Particulars: in vivo, treated rats; cited from earlier work.
Data set [10] concerns cytochrome P450. The conditions noted are these: dose far in excess of the amount in grapefruit juice; cited from earlier work.
[11] abbreviates: preincubation with DHB and NADPH.

With `O=C1C[C@@H](c2ccc(O)cc2)Oc2cc(O)cc(O)c21` [naringenin], the “inhibition of CYP3A / contribution to it” value in the data set with CYP3A [1] is “do not significantly contribute”.

Consider `C#Cc1ccc2c(ccc3ccccc32)c1` [2-ethynylphenanthrene], for which the mechanism based inactivation entry in the data set on P450 2B1 and in the data set with P450 2B4 was “mechanism based inactivation” in each case.

Regarding `CC(=O)N1CCN(c2ccc(OCC3COC(Cn4ccnc4)(c4ccc(Cl)cc4Cl)O3)cc2)CC1` (centres unmarked) [ketoconazole, reference compound], the IC50 in the data set with CYP3A [2] (read-out: concentration required to inhibit 6β-hydroxytestosterone formation by 50% (IC50), rat liver microsomes (dexamethasone-induced)) was […]. Moreover, the bioavailability of cyclosporine result in the data set with CYP3A [3] is listed as “increases bioavailability”.

As a reminder, the inhibition is the relative decrease from the control value, in per cent. As to `C/C(=C\COc1c2ccoc2cc2oc(=O)ccc12)CCC(O)C(C)(C)O` (centres unmarked) [6',7'-dihydroxybergamottin], in the data set with CYP3A [2], the “inhibition, concentration dependence and need of pre-incubation” value is “inhibition is concentration-dependent and requires no pre-incubation with microsomes”. The IC50 in the data set on CYP3A [2] (microsomes) was 25000 nM; on human CYP3A4, 1000 to 2000 nM. The “inactivation of 3A4, in words” value in the data set with CYP3A4 (3A4) was “potent NADPH- and time dependent inactivator of 3A4”; at P450 3A4 [5] (human 3A4 expressed in E. coli membrane), “potent NADPH- and time dependent inactivator of 3A4”; on P450 3A4 [6] (human liver microsomes) it was “potent NADPH- and time dependent inactivator of 3A4”. In addition, the “solubility, in words” value in data set [4] is “much more soluble in ethanol than water”. The inhibition is ~45% against P450 3A4 [5] and 90% against P450 3A4 [5] (15 min). For the same compound, the “effect of GSH on inactivation” value on P450 3A4 [6] (2 mM GSH in the incubation system) is on record as “not inhibited by the presence of 2 mM GSH”. In addition, the “P450 Content” value at P450 3A4 [6] (+NADPH/+DHB) was 0.87 nmol/mL; on P450 3A4 [6] (-NADPH/+DHB), 0.93 nmol/mL. Also, the “Testosterone 6-β hydroxylation” value was 0.18 nmol/nmol P450/min on P450 3A4 [6] (+NADPH/+DHB) and 0.37 nmol/nmol P450/min on P450 3A4 [6] (-NADPH/+DHB). Moreover, the “inhibition of 6β-hydroxytestosterone formation activity, mode” value against P450 3A4 [6] (FIG. 4, human liver microsomes) is “time and concentration dependent as well as requiring catalytic turnover”. In addition, at P450 3A4 [6] (human liver microsomes), the “P450 3A4 activity inhibition, in words” value is listed as “significantly inhibited”. In addition, at P450 3A4 [6] (setting [11]), the “P450 retained (reduced-CO spectrum)” value was “about 90%”. Also, at P450 3A4 [6] (setting [11]), the “loss of P450 3A4 catalytic activity” value is 70%. In addition, the inhibition at 20 µM on P450 3A4 [6] (without preincubation, final concentration of 20 μM, read-out: testosterone 6β-hydroxylase activity inhibited (competitive inhibition)) was ~30%.

Consider `C[C@@H]1O[C@@H](O[C@H]2[C@H](Oc3cc(O)c4c(c3)O[C@H](c3ccc(O)cc3)CC4=O)O[C@H](CO)[C@@H](O)[C@@H]2O)[C@H](O)[C@H](O)[C@H]1O` [naringin], for which the “inhibition of oxidative metabolism” value in the data set on oxidative metabolism was “weak inhibitor”. In addition, the “effect on disposition of substrates for CYP3A4” value in the data set with CYP3A4 is reported as “did not significantly affect”. For the same compound, in the data set on CYP3A [1], the “inhibition of CYP3A / contribution to it” value is listed as “do not significantly contribute”.

Turning to `CC[C@H]1OC(=O)[C@H](C)[C@@H](O[C@H]2C[C@@](C)(OC)[C@@H](O)[C@H](C)O2)[C@H](C)[C@@H](O[C@@H]2O[C@H](C)C[C@H](N(C)C)[C@H]2O)[C@](C)(O)C[C@@H](C)C(=O)[C@H](C)[C@@H](O)[C@]1(C)O` [erythromycin], the metabolism of midazolam result in the data set with P450 [7] is “impaired the metabolism of midazolam after both oral and IV administration”.

With chlorophyllin, the “inhibition of cytochrome P450 activity” value with cytochrome P450 [8] is on record as “non-specific inhibition of cytochrome P450 activity”.

Take `C#Cc1cc2ccccc2c2ccccc12` [9-ethynylphenanthrene]: the mechanism based inactivation entry with P450 2B1 and in the data set on P450 2B4 was “mechanism based inactivation” throughout.

On to `COc1c2ccoc2cc2cc(C)oc(=O)c12` [coriandrin], for which the “binding to apoP450” value in the data set on P450 1A1 and in the data set with P450 1A2 was “covalent binding” each time.

`COc1c2occc2cc2ccc(=O)oc12` [8-methoxyporalen]: the “heme fragment, MI complex and heme adduct formation” value with P450 [9] is “no heme fragment, MI complex and heme adduct formation”.

`O=c1c(O)c(-c2ccc(O)c(O)c2)oc2cc(O)cc(O)c12` [quercetin]: the “effect on cytochrome P450 activity” value in the data set with cytochrome P450 [10] is listed as “no effect”.

Values taken from US6160006A (priority 1997, dated 2000).
